Laboratory results published in patent publication US20080004282A1, “Compositions and methods for modulating gated ion channels” (PainCeptor Pharma Corporation, priority 2006, published 2008).
Where two headings read alike, the source gives them in different places.

Target: T1, ASIC1a (Homo sapiens, UniProt P78348)
T1 sequence (P78348 1-528): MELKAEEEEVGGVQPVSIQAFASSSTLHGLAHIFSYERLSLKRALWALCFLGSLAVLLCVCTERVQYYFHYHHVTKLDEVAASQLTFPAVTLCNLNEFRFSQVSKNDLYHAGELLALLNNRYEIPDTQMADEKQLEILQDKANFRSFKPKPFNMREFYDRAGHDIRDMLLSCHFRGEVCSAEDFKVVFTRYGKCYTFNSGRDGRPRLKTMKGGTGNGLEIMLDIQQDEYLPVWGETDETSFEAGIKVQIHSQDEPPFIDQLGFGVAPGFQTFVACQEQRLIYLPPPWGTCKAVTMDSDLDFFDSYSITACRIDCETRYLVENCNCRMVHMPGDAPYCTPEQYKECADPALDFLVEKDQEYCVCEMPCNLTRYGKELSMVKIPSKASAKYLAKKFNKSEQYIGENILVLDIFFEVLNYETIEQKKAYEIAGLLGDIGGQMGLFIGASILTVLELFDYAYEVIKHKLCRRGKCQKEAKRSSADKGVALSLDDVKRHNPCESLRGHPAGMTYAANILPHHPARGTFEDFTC
Assay: Whole cell patch clamp in HEK293 cells transfected with hASIC1a
Type: cell-based
Parameters: expressed in transfected cells; host or cells: Xenopus laevis oocytes, nuclear microinjection of an expression vector such as pCDNA3
Description: Screening and Bioanalysis of ASIC Antagonists in Heterologous Expression Systems
This example describes another in vitro assessment of the activity of the compounds of the present invention.
Another example of an in vitro assessment method consists of using mammalian heterologous expression systems, which are known to the skilled in the art, and include a variety of mammalian cell lines such as COS, HEK, e.g., HEK293 and/or CHO, cells. Cell lines are transfected with gated ion channel(s) and used to perform electrophysiology as follows:
All experiments are performed at room temperature (20-25° C.) in voltage clamp using conventional whole cell patch clamp methods (Neher, E., et al. (1978) Pfluegers Arch 375:219-228). […]
Coverslips with the cells are transferred to a 15 μl experimental chamber mounted on the stage of an inverted microscope (IMT-2, Olympus) supplied with Nomarski optics. […] The cells are held at a holding voltage of −60 mV and at the start of each experiment the current is continuously measured for 45 s to ensure a stable baseline. […] Current amplitudes are measured at the peak of the responses, and effect of the compounds is calculated as the amplitude at compound equilibrium divided by the amplitude of the current evoked by the pulse just before the compound is included. […]

| SMILES | IC50 [µM] | IC50 (HEK293 cells, whole cell patch clamp, six point dose-response, read-out: IC50, inhibition of acid-induced hASIC1a activity) [µM] |
| --- | --- | --- |
| CCN1CCc2c(-c3cc(Cl)ccc3OC)cc(C#N)c(N)c2C1 [Compound 44] | 5.1 | – |
| CCN1CCc2c(-c3ccccc3)cc(C#N)c(N)c2C1 [Compound 12, 8-Amino-2-ethyl-5-phenyl-1,2,3,4-tetrahydro-isoquinoline-7-carbonitrile] | – | 4 |
